Two molecules from US10959974B2, “Ingenol compounds and use thereof in anti-HIV latency treatment” (priority 2015, dated 2021) can be followed below.

Values after ≈ are worked out from the molar mass of the structure shown. Like-named read-outs stand apart in the source and are kept apart here.

Assay [1] deals with latent HIV in J-Lat-A10.6 cells. In words: Activation of latent HIV in J-Lat-A10.6 cells, GFP fluorescence / flow cytometry. In kind it is cell-based, human. Conditions: 48 h. As for the experimental part:
(§1) The HIV latent cell model of the present invention comprises: a human T cell 10.6 clone strain carrying a green fluorescent protein gene (J-Lat-A10.6), which is provided by the National Institute of Health Research AIDS Reference Reagent Planning Department, established by Dr. Eric Verdin of the University of California.
(§2) The cells are small and the spherical cells are cultured in suspension. […]
(§3) J-Lat-A10.6 or C11 cells were seeded in 96-well plates at 2×10E4 cells per well, and 100 μl of 1640 medium (Gibco) containing 10% FBS (Gibco) was added to each well. After the cells were treated with the compounds in Examples 1-7 for 48 h, the green fluorescence expression of the cells was observed under a fluorescence microscope, the cells were collected for flow cytometry detection, and the proportion of fluorescent cells was analyzed.
(§4) J-Lat-A10.6 or C11 cells were seeded in 96-well plates at 2×10E4 cells per well, and 100 μl of 1640 medium (Gibco) containing 10% FBS (Gibco) was added to each well. After treatment with different concentrations of compounds (such as the compounds in Examples 1-7) and Prostratin for 48 h, the cells were collected for flow cytometry detection and the proportion of fluorescent cells was analyzed.
(In general: In flow cytometry, cells or beads pass a laser one at a time.)

In assay [2] the test system is latent HIV in J-Lat-A10.6 or C11 cells. In words: Activation of HIV expression in latent cells, flow cytometry of green fluorescent cells (cell line not given). In kind it is cell-based, human. Conditions: treated 48 h. On the procedure: as §1, §2, §3, §4
The next assay relates to latent HIV in C11 cells. In words: Activation of latent HIV in C11 cells, GFP fluorescence / flow cytometry. The class given is cell-based. The settings on record: for EC50: read-out: EC50 of activation of latent HIV-1. On the procedure: The cells are small and the spherical cells are cultured in suspension. Human T cell Jurkat […] cells are transfected by the retroviral vector carrying the green fluorescent protein gene HIV-R7/E-/GFP and sorted (Jordan A, Bisgrove D, Verdin E. HIV reproducibly establishes a latent infection after acute infection EMBO J 22:1868-1877, 2003); another established HIV latent screening model C11 clone is obtained by the twice of the sorting and activation on HIV lentivirus-infected T cells. (Chinese patent: 200810038851. X).
as §3, §4

Assay [3] concerns cells in the known HIV-infected latent reservoir. Put plainly: Treatment of cells of the HIV-infected latent reservoir with compound, then antiretroviral drugs. The class given is cell-based. The settings on record: compound treatment followed by antiretroviral drugs, versus untreated viral latent reservoir.
Assay [4] relates to resting CD4+ T cells isolated from the peripheral blood of AIDS patients. In words: Activation of latent HIV in peripheral blood resting CD4+ T cells of AIDS patients, real-time PCR of HIV-1 mRNA. In kind it is cell-based, human. The settings on record: 0.005 μM, 18 h; compared with control and 5 μg/ml PHA treated cells. On the procedure: The resting CD4+ T cells isolated from the peripheral blood of 5 AIDS patients were treated with 5 μg/ml PHA (phytohemagglutinin) (positive control) and 0.005 μM compound 16A for 18 h, and then HIV-1 mRNA was extracted from resting CD4+ T cells and the medium, real-time PCR was used to detect the change of HIV-1 mRNA expression level in resting CD4+ T cells and medium, respectively.
(In general: Quantitative PCR measures a nucleic acid by following its amplification.)

With `CCCCCCCCCCCC(=O)O[C@@]12C[C@@H](C)[C@]34C=C(C)[C@H](OC(=O)C(C)C(C)C)[C@@]3(O)[C@H](O)C(CO)=C[C@H](C4=O)[C@@H]1C2(C)C` (stereo partly drawn) [Example 1, 3-O-(2,3-dimethylbutanoyl)-13-O-dodecanoyl ingenol], the “proportion of green fluorescent positive cells” value in assay [1] (10 nM, background about 1-2%) is 90%; with latent HIV in C11 cells (10 nM, 48 h, C11 cells) it was about 80%. In addition, the EC50 was found to be 2.6 ng/mL (≈ 4.03 nM) in assay [2] (flow cytometry, J-Lat-A10.6 or C11 cells (not specified for Table 1)) and 3.53 nM in the assay with latent HIV in C11 cells (C11 cells, 48 h, flow cytometry). In addition, the activation rate in assay [2] (proportion of fluorescent cells, J-Lat-A10.6 or C11 cells (not specified), untreated control 2%) is reported as 93%. Moreover, the “number of viral latent reservoir” value in assay [3] was “significantly lower”. Also, the “intracellular activated HIV-mRNA” value in assay [4] is given as “significantly higher”.

For `CC(=O)O[C@@]12C[C@@H](C)[C@@]3(O)[C@@H](C=C(CO)C[C@]4(O)C(=O)C(C)=C[C@@H]34)[C@@H]1C2(C)C` [Prostratin, reference compound], the EC50 in assay [1] (Homo sapiens, flow cytometry, read-out: EC50 of activation of latent HIV-1) was 860 nM; in the assay on latent HIV in C11 cells (Human immunodeficiency virus 1, 48 h), 760 nM.

By EC50 is commonly meant the concentration giving half of the maximal effect.
